Measured values from patent US7531195B2, “Schisandrin B preparation” (priority 2005, dated 2009).

Tests used:
[1] = tested on: H9c2 cells; experiment: Cellular GSH level in H9c2 cells, time course, with or without xanthine/xanthine oxidase (X/XO) challenge; assay type: cell-based, rat; details: 6.25 μM
Description: H9c2 cells, a permanent cell line derived from cardiac myoblasts of rat embryo, have early been characterized as a suitable model of myocardial cells [Hescheler et al. 1991]. H9c2 cells were cultured as monolayers in Dulbecco's modified Eagle's medium (GIBCO BRL) supplemented with 10% (v/v) fetal bovine serum. The medium contained glucose (4.5 g/L) and glutamine (4.5 mM), supplemented with NaHCO3 (17 mM), penicillin (100 IU/ml), and streptomycin (100 μg/ml). Cells were grown under an atmosphere of 5% CO2 in air at 37° C. The medium was replaced by fresh medium every 2 or 3 days. A stock of cells was grown in a 75 cm culture flask and split before confluence at a subcultivation ratio of 1:10. Cells used for experiments were seeded at a density of 3.75×10^4 cells/well on a 12-well culture plate, and the cells were grown for 24 h to about 80% confluence prior to drug treatment.
Cultured H9c2 cells were treated with (−) Schisandrin B, (+) Schisandrin B or (±) Schisandrin B (dissolved in DMSO) at 6.25 μM (0.2% DMSO final concentration) for increasing periods of time. Control cells were given the vehicle (i.e. DMSO) only. Immediately following the drug or vehicle pretreatment, the cells were challenged with a mixture of xanthine (X) (0.1 mM) and xanthine oxidase (XO) (0.4 U/ml) for 4 h. The control cells were treated with the medium only. After the X/XO challenge, the medium was taken for the measurement of LDH activity, a biochemical index of cellular injury.
The cells were washed twice with 0.5 ml cold phosphate-buffered saline (PBS), An aliquot (200 μl) of 3% sulfonsalicyclic acid was then added, and the mixture was incubate at 4° C. for 10 min. After centrifuging at 300 g for 15 min at 4° C., the supernatant was used for GSH measurement by an enzymatic method of Griffith (1980).

[2] = tested on: Hsp70; experiment: Tissue Hsp70 level in young female rats (Western blot); assay type: in vivo, rat; details: 10 mg/kg daily, 15 days
Description: Female Sprague-Dawley rats (8 weeks old) were maintained under a 12-h dark/light cycle at about 22° C. and allowed food and water ad libitum. Drug treated animals received a daily bolus dose of (−) Schisandrin B, α-lipoic acid (α-LA) or α-tocopherol (α-Toc) at 10, 5 and 70 mg/kg, respectively, for 15 days. The dosages were determined with reference to the equivalent amount of crude herb prescribed for human or the daily recommended intake in health supplements. The control animals received olive oil only. Twenty-four hours after the last dose, the pentobarbital-anesthetized animals were sacrificed by cardiac excision, and brain. heart, liver and skeletal muscle tissues were obtained.
Hsp25 and Hsp70 levels was estimated by Western blot analysis using specific antibodies (anti-Hsp25, catalog #SPA-801; anti-Hsp70, catalog #SPA-812) from StressGen (Vancouver, BC, Canada) following SDS-PAGE analysis of the nuclear-free tissue homogenates, using a separating gel of 10% acrylamide as described in Ip et. al. (2001). Hsp25/27 and Hsp70 (human recombinant proteins from StressGen) and actin (bovine muscle from Sigma) were used as markers for reference. […] All immuno-blots were analyzed by densitometry, and the amounts (arbitrary units) of Hsp were normalized with reference to actin levels (arbitrary units) in the sample.

[3] = tested on: isolated heart; experiment: Myocardial I-R injury (LDH leakage) in young adult and middle-aged rats; assay type: in vivo, rat; details: 10 mg/kg/day x 35
Description: Young adult (8-10 week-old) and middle-aged (12-14 month-old retired breeder) female Sprague-Dawley rats were maintained under a 12-h dark/light cycle at about 22° C. and allowed food and water ad libitum. Experimental protocols were approved by the Research Practice Committee at the Hong Kong University of Science & Technology, Hong Kong. Animals were randomly divided into groups, with 5 animals in each. In the treatment groups, rats were intragastrically administered with Sch B (dissolved/suspended in olive oil) at a daily dose of 10 mg/kg for 15 days. The daily dose is approximated to 1.14 mg/kg for humans after adjusting the inter-species difference in drug distribution in the body. Untreated control animals received olive oil only. Twenty-four hours after the last dosing, animals were sacrificed by decapitation and the whole brain, heart ventricular, liver and skeletal muscle (hind limb) tissues were excised and subjected to biochemical analysis. To investigate the effect of (−) Sch B on myocardial ischemia-reperfusion […] injury, rats were intragastrically administered with (−) Sch B at a daily dose of 10 mg/kg for 35 days. Untreated control animals received olive oil only. Twenty-four hours after the last dosing, hearts were isolated from pentobarbital-anesthetized animals and subjected to I-R experiment. […]

[4] = X/XO challenge, 16 h post-dosing

Which “stimulatory effect on cellular GSH” value ([1]; 48 h post-dosing) does the source give for `COc1cc2c(c(OC)c1OC)-c1c(cc3c(c1OC)OCO3)CC(C)C(C)C2` (single isomer, unassigned; (-)) [(−) Sch B, (−) Schisandrin B] here?
Its value is “no detectable stimulatory effect”.

What about the “time of maximum stimulation of cellular GSH” value ([1]; post-dosing) of the same compound?
Its value is 16 h.

And the “GSH Level” value ([1]; NON-X/XO, 0 h post-dosing (unpretreated control))?
Its value is 35.8 ± 1.04 nmol/mg protein.

And the “GSH Level” value ([1]; NON-X/XO, 4 h post-dosing)?
Its value is 46.8 ± 0.88 nmol/mg protein.

What about the “GSH Level” value ([1]; NON-X/XO, 8 h post-dosing) of the same compound?
The value was 54.2 ± 1.42 nmol/mg protein.

And the “GSH Level” value ([1]; NON-X/XO, 16 h post-dosing)?
The value was 92.6 ± 1.29 nmol/mg protein.

What about the “GSH Level, percent increase vs unpretreated control (0 h)” value ([1]; NON-X/XO, 16 h post-dosing) of the same compound?
The value was “(158%)”.

And the “GSH Level” value ([1]; NON-X/XO, 24 h post-dosing)?
Its value is 79.0 ± 1.48 nmol/mg protein.

And the “GSH Level” value ([1]; NON-X/XO, 48 h post-dosing)?
The value was 54.7 ± 3.58 nmol/mg protein.

And the “GSH Level” value ([1]; X/XO challenge, 0 h post-dosing (unpretreated control))?
The value was 15.9 ± 0.45 nmol/mg protein.

And the “GSH Level” value ([1]; X/XO challenge, 4 h post-dosing)?
Its value is 18.3 ± 0.57 nmol/mg protein.

What about the “GSH Level” value ([1]; X/XO challenge, 8 h post-dosing) of the same compound?
Its value is 20.7 ± 0.61 nmol/mg protein.

And the “GSH Level” value [1, 4]?
The value was 25.1 ± 1.50 nmol/mg protein.

What about the “GSH Level, percent increase vs unpretreated control (0 h)” value [1, 4] of the same compound?
Its value is “(57%)”.

And the “GSH Level” value ([1]; X/XO challenge, 24 h post-dosing)?
The value was 17.8 ± 0.59 nmol/mg protein.

And the “GSH Level” value ([1]; X/XO challenge, 48 h post-dosing)?
The value was 16.7 ± 0.63 nmol/mg protein.

What about the “Heat Shock Protein Level, Hsp70” value ([2]; BRAIN) of the same compound?
The value was 0.49 ± 0.05 AU.

What about the “Hsp70 level, percent increase vs untreated control” value (“Hsp70 level, percent increase” below) ([2]; BRAIN) of the same compound?
Its value is “(77%)”.

And the “Heat Shock Protein Level, Hsp70” value ([2]; HEART)?
Its value is 0.71 ± 0.03 AU.

And the “Hsp70 level, percent increase” value ([2]; HEART)?
Its value is “(17%)”.

What about the “Heat Shock Protein Level, Hsp70” value ([2]; LIVER) of the same compound?
Its value is 0.69 ± 0.001 AU.

What about the “Hsp70 level, percent increase” value ([2]; LIVER) of the same compound?
The value was “(45%)”.

What about the “Heat Shock Protein Level, Hsp70” value ([2]; SKELETAL MUSCLE) of the same compound?
The value was 0.69 ± 0.07 AU.

What about the “Hsp70 level, percent increase” value ([2]; SKELETAL MUSCLE) of the same compound?
Its value is “(57%)”.

What about the “degree of protection against myocardial I-R injury” value ([3]; middle-aged rats) of the same compound?
Its value is 36%.

What about the “degree of protection against myocardial I-R injury” value ([3]; young adult rats) of the same compound?
The value was 55%.
